# Assay results taken from BindingDB's records for doi:10.1021/jm060797q (Teikyo University, 2006).
# Experiment: Antagonist activity against 1-alpha,25-dihydroxy vitamin D3-induced HL60 cell differentiation by NBT reduction method
row,IC50 [nM],SMILES
1,6,C=C1/C(=C\C=C2/CCC[C@]3(C)[C@@H]([C@H](C)C[C@@H]4OC(=O)C(=C)[C@@H]4CCC)CC[C@@H]23)C[C@@H](O)C[C@@H]1O
2,9.3,C=C1/C(=C\C=C2/CCC[C@]3(C)[C@@H]([C@H](C)C[C@H]4OC(=O)C(=C)[C@H]4CC(C)C)CC[C@@H]23)C[C@@H](O)[C@H](OCCCO)[C@@H]1O
3,9.3,C=C1/C(=C\C=C2/CCC[C@]3(C)[C@@H]([C@H](C)C[C@@H]4OC(=O)C(=C)[C@H]4CC(C)C)CC[C@@H]23)C[C@@H](O)[C@H](OCCCO)[C@@H]1O
4,6.3,C=C1/C(=C\C=C2/CCC[C@]3(C)[C@@H]([C@H](C)C[C@H]4OC(=O)C(=C)[C@@H]4CCC)CC[C@@H]23)C[C@@H](O)[C@H](CCCO)[C@@H]1O
5,6,C=C1C[C@@H](C[C@@H](C)[C@H]2CC[C@H]3/C(=C/C=C4/C[C@@H](O)C[C@H](O)C4=C)CCC[C@]23C)OC1=O
6,6.2,C=C1C(=O)O[C@H](C[C@@H](C)[C@H]2CC[C@H]3/C(=C/C=C4/C[C@@H](O)[C@H](CCCO)[C@H](O)C4=C)CCC[C@]23C)[C@@H]1C
7,8.8,C=C1/C(=C\C=C2/CCC[C@]3(C)[C@@H]([C@H](C)C[C@H]4OC(=O)C(=C)[C@@H]4CCCC)CC[C@@H]23)C[C@@H](O)[C@H](OCCCO)[C@@H]1O
8,8.4,C=C1/C(=C\C=C2/CCC[C@]3(C)[C@@H]([C@H](C)C[C@H]4OC(=O)C(=C)[C@@H]4CC)CC[C@@H]23)C[C@@H](O)[C@H](OCCCO)[C@@H]1O
9,10,C=C1/C(=C\C=C2/CCC[C@]3(C)[C@@H]([C@H](C)C[C@H]4OC(=O)C(=C)[C@@H]4CC(C)C)CC[C@@H]23)C[C@@H](O)C[C@@H]1O
10,9.3,C=C1/C(=C\C=C2/CCC[C@]3(C)[C@@H]([C@H](C)C[C@@H]4OC(=O)C(=C)[C@@H]4CC(C)C)CC[C@@H]23)C[C@@H](O)[C@H](CCCO)[C@@H]1O
11,6.7,C=C1/C(=C\C=C2/CCC[C@]3(C)[C@@H]([C@H](C)C[C@H]4OC(=O)C(=C)[C@@H]4CC)CC[C@@H]23)C[C@@H](O)[C@H](C)[C@@H]1O
12,7.7,C=C1C(=O)O[C@@H](C[C@@H](C)[C@H]2CC[C@H]3/C(=C/C=C4/C[C@@H](O)C[C@H](O)C4=C)CCC[C@]23C)[C@@H]1C
13,6.3,C=C1/C(=C\C=C2/CCC[C@]3(C)[C@@H]([C@H](C)C[C@H]4OC(=O)C(=C)[C@H]4CCC)CC[C@@H]23)C[C@@H](O)[C@H](OCCCO)[C@@H]1O
14,10,C=C1C(=O)O[C@H](C[C@@H](C)[C@H]2CC[C@H]3/C(=C/C=C4/C[C@@H](O)C[C@H](O)C4=C)CCC[C@]23C)[C@@H]1CC(C)C
15,6.3,C=C1/C(=C\C=C2/CCC[C@]3(C)[C@@H]([C@H](C)C[C@@H]4OC(=O)C(=C)[C@H]4CCC)CC[C@@H]23)C[C@@H](O)[C@H](C)[C@@H]1O
16,6.8,C=C1/C(=C\C=C2/CCC[C@]3(C)[C@@H]([C@H](C)C[C@@H]4OC(=O)C(=C)[C@@H]4C)CC[C@@H]23)C[C@@H](O)[C@H](C)[C@@H]1O
17,6,C=C1C(=O)O[C@H](C[C@@H](C)[C@H]2CC[C@H]3/C(=C/C=C4/C[C@@H](O)C[C@H](O)C4=C)CCC[C@]23C)[C@@H]1CCC
18,8.4,C=C1/C(=C\C=C2/CCC[C@]3(C)[C@@H]([C@H](C)C[C@@H]4OC(=O)C(=C)[C@H]4CC)CC[C@@H]23)C[C@@H](O)[C@H](OCCCO)[C@@H]1O
19,9.5,C=C1/C(=C\C=C2/CCC[C@]3(C)[C@@H]([C@H](C)C[C@@H]4OC(=O)C(=C)[C@@H]4CC(C)C)CC[C@@H]23)C[C@@H](O)C[C@@H]1O
20,6,C=C1/C(=C\C=C2/CCC[C@]3(C)[C@@H]([C@H](C)C[C@H]4OC(=O)C(=C)C4(C)C)CC[C@@H]23)C[C@@H](O)C[C@@H]1O

row,IC50 [nM],SMILES
1,11,C=C1/C(=C\C=C2/CCC[C@]3(C)[C@@H]([C@H](C)C[C@@H]4OC(=O)C(=C)[C@@H]4CC(C)C)CC[C@@H]23)C[C@@H](O)[C@H](C)[C@@H]1O
2,9.2,C=C1C(=O)O[C@H](C[C@@H](C)[C@H]2CC[C@H]3/C(=C/C=C4/C[C@@H](O)C[C@H](O)C4=C)CCC[C@]23C)[C@@H]1C
3,8.4,C=C1/C(=C\C=C2/CCC[C@]3(C)[C@@H]([C@H](C)C[C@H]4OC(=O)C(=C)[C@@H]4CC)CC[C@@H]23)C[C@@H](O)[C@H](CCCO)[C@@H]1O
4,6.3,C=C1/C(=C\C=C2/CCC[C@]3(C)[C@@H]([C@H](C)C[C@@H]4OC(=O)C(=C)[C@@H]4CCC)CC[C@@H]23)C[C@@H](O)[C@H](CCCO)[C@@H]1O
5,6.1,C=C1C(=O)O[C@H](C[C@@H](C)[C@H]2CC[C@H]3/C(=C/C=C4/C[C@@H](O)[C@H](OCCCO)[C@H](O)C4=C)CCC[C@]23C)[C@@H]1C
6,6.7,C=C1/C(=C\C=C2/CCC[C@]3(C)[C@@H]([C@H](C)C[C@H]4OC(=O)C(=C)[C@@H]4CCCC)CC[C@@H]23)C[C@@H](O)[C@H](C)[C@@H]1O
7,8.1,C=C1/C(=C\C=C2/CCC[C@]3(C)[C@@H]([C@H](C)C[C@H]4OC(=O)C(=C)[C@@H]4C)CC[C@@H]23)C[C@@H](O)[C@H](C)[C@@H]1O
8,6.3,C=C1/C(=C\C=C2/CCC[C@]3(C)[C@@H]([C@H](C)C[C@@H]4OC(=O)C(=C)[C@H]4CCC)CC[C@@H]23)C[C@@H](O)[C@H](OCCCO)[C@@H]1O
9,6.2,C=C1/C(=C\C=C2/CCC[C@]3(C)[C@@H]([C@H](C)C[C@H]4OC(=O)C(=C)[C@@H]4C)CC[C@@H]23)C[C@@H](O)[C@H](CCCO)[C@@H]1O
10,6.2,C=C1/C(=C\C=C2/CCC[C@]3(C)[C@@H]([C@H](C)C[C@@H]4OC(=O)C(=C)[C@@H]4C)CC[C@@H]23)C[C@@H](O)[C@H](CCCO)[C@@H]1O
11,6,C=C1C(=O)O[C@@H](C[C@@H](C)[C@H]2CC[C@H]3/C(=C/C=C4/C[C@@H](O)C[C@H](O)C4=C)CCC[C@]23C)[C@@H]1CCC
12,6.1,C=C1/C(=C\C=C2/CCC[C@]3(C)[C@@H]([C@H](C)C[C@@H]4OC(=O)C(=C)[C@@H]4C)CC[C@@H]23)C[C@@H](O)[C@H](OCCCO)[C@@H]1O
13,8.8,C=C1/C(=C\C=C2/CCC[C@]3(C)[C@@H]([C@H](C)C[C@H]4OC(=O)C(=C)[C@H]4CCCC)CC[C@@H]23)C[C@@H](O)[C@H](OCCCO)[C@@H]1O
14,6.3,C=C1/C(=C\C=C2/CCC[C@]3(C)[C@@H]([C@H](C)C[C@H]4OC(=O)C(=C)[C@H]4CCC)CC[C@@H]23)C[C@@H](O)[C@H](C)[C@@H]1O
15,8.8,C=C1/C(=C\C=C2/CCC[C@]3(C)[C@@H]([C@H](C)C[C@@H]4OC(=O)C(=C)[C@H]4CCCC)CC[C@@H]23)C[C@@H](O)[C@H](CCCO)[C@@H]1O
16,6.3,C=C1/C(=C\C=C2/CCC[C@]3(C)[C@@H]([C@H](C)C[C@H]4OC(=O)C(=C)[C@H]4CCC)CC[C@@H]23)C[C@@H](O)[C@H](CCCO)[C@@H]1O
17,6.7,C=C1/C(=C\C=C2/CCC[C@]3(C)[C@@H]([C@H](C)C[C@@H]4OC(=O)C(=C)[C@@H]4CC)CC[C@@H]23)C[C@@H](O)[C@H](C)[C@@H]1O
18,8.6,C=C1/C(=C\C=C2/CCC[C@]3(C)[C@@H]([C@H](C)C[C@H]4OC(=O)C(=C)[C@@H]4CC)CC[C@@H]23)C[C@@H](O)C[C@@H]1O
19,6.3,C=C1/C(=C\C=C2/CCC[C@]3(C)[C@@H]([C@H](C)C[C@@H]4OC(=O)C(=C)[C@@H]4CCC)CC[C@@H]23)C[C@@H](O)[C@H](C)[C@@H]1O
20,6.3,C=C1/C(=C\C=C2/CCC[C@]3(C)[C@@H]([C@H](C)C[C@@H]4OC(=O)C(=C)[C@H]4CCC)CC[C@@H]23)C[C@@H](O)[C@H](CCCO)[C@@H]1O
